Reference: patent publication US20130338383A1, “PREGNANOLONE DERIVATIVES SUBSTITUTED IN 3ALPHA-POSITION WITH THE CATIONIC GROUP, METHOD OF THEIR PRODUCTION, USAGE AND PHARMACEUTICAL PREPARATION INVOLVING THEM” (FYZIOLOGICKY USTAV AKADEMIE VED CESKE REPUBLICKY, V.V.I., priority 2011, published 2013)
Read-outs that look alike come from different tables or passages of the source.

What was measured:
[1] = target: T1, NR1/NR2B NMDA receptors (Rattus norvegicus, UniProt P35439+Q00960); conditions: pregnanolone sulfate 100 μmol·l^−1, recombinant NR1/NR2B receptors, n=5, Petrovic et al., 2005, cited from earlier work
T1 construct: expressed in transfected cells; host or cells: HEK293 cells (ATCC CRL1573)
T1 sequence (Q00960 27-1482, other chains not shown): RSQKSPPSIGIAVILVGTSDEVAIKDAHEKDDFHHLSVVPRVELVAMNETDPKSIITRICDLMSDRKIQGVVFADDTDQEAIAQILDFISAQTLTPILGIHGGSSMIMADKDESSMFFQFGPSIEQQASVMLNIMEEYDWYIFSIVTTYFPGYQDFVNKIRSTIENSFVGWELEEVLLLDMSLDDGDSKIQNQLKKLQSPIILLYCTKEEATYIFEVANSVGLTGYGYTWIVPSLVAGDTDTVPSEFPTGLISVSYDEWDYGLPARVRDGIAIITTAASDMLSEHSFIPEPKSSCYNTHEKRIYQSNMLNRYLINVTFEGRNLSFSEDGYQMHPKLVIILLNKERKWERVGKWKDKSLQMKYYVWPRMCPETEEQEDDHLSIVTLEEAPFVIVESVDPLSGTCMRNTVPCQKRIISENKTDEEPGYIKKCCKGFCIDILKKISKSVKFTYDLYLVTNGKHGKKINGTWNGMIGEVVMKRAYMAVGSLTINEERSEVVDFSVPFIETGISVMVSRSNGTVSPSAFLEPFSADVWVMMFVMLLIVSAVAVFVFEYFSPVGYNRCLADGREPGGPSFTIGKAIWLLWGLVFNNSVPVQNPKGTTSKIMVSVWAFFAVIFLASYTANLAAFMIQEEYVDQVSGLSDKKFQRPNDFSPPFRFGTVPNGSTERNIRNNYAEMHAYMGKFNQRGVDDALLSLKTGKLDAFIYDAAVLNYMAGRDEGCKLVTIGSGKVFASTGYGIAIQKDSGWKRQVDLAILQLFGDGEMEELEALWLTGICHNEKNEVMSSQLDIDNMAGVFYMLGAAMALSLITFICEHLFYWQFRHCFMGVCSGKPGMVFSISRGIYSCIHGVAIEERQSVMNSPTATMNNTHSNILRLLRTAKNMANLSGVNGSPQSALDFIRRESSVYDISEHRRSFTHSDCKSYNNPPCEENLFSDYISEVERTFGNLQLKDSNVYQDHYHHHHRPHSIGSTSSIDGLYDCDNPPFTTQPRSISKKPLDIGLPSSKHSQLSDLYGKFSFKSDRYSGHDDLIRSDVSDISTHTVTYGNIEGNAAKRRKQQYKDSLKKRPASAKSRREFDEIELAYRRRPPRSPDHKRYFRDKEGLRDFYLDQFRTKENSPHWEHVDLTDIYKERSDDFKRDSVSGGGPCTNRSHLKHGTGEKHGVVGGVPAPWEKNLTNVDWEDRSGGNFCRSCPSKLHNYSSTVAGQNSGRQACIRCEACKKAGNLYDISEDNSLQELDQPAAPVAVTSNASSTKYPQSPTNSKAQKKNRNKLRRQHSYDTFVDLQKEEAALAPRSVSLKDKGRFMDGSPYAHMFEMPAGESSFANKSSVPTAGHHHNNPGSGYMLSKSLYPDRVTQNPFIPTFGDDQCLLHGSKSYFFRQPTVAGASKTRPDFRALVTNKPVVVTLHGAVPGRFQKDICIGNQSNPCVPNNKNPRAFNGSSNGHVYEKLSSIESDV

[2] = test system: NMDA receptors on hipocampal neurones; conditions: pregnanolone sulfate 100 μmol·l^−1; responses elicited by NMDA; −60 mV; n=5; Petrovic et al., 2005; cited from earlier work
[3] = target: T1, NR1/NR2B NMDA receptors; experiment: Patch-clamp inhibition of glutamate-elicited currents in HEK293 cells transfected with NR1-1a/NR2B; type: cell-based; conditions: for IC50: calculated from relative inhibition with Hill's coefficient 1.2; for IC50 / Relative inhibition effect (%): 5 cells; for Relative inhibition effect (%): 1 mmol·l^−1 glutamic acid
Method: The membrane potentials were maintained at −60 mV or +60 mV. Patch-clamp technique was used to record the currents from cultivated HEK293 cells with transfected NR1/NR2B NMDA receptors. Relative inhibition elicited by the compound from the example 2 was calculated from the formula (1−a/b)*100(%).
Degree of activated NMDA receptor inhibition by steroid cationic compounds was measured in vitro electrophysiologically on cultivated HEK293 cells (Human Embryonic Kidney 293 cells) 24-48 h after the transfection with DNA plasmids, coding NR1-1a and NR2B subunit of NMDA receptor. Transfected cells were identified by means of fluorescent green protein (GFP) fluorescence. Its genus was transfected together with the both receptor subunit genes.
Steroid-containing solutions were prepared from fresh solution (20 mmol·l^−1, of steroid dissolved in dimethyl-sulfoxide, DMSO), which was added to the extracellular solution containing 1 mmol·l^−1 glutamic acid and 10 μmol·l^−1 of glycine. Same concentrations of DMSO were added to all other extracellular solutions.
Current responses produced by extracellular application of glutamic acid solution (1 mmol·l^−1) were measured from the whole cell by patch-clamp technique, which is used for the study of transport of charged particles through model and also natural biological membranes. The currents were measured at membrane potential maintained at −60 mV and +60 mV.
HEK293 cells (American Type Culture Collection, ATTC No. CRL1573, Rockville, Md.) were cultivated in Opti-MEM® I media (Invitrogen) with addition of 5% fetal bovine serum at 37° C. and transfected with NR1-1a/NR2B/GFP plasmids, as described in the scientific literature (Cais et al., 2008). Same amounts (0.3 μg) of cDNA coding NR1, NR2 and GFP (green fluorescent protein) (pQBI 25, Takara, Japan) were mixed with 0.9 μl of Matra-A Reagent (IBA, Göttingen, Germany) and added to confluent HEK293 cells cultivated in v 24-pit cultivating plate. After trypsination, the cells were re-suspended in Opti-MEM® I containing 1% fetal bovine serum. Subsequently, 20 mmol·l^−1 MgCl2, 1 mmol D,L-2-amino-5-phosphonopentanoic acid, 3 mmol·l^−1 kynurenic acid was added to the mixture and cells were inoculated on the polylysine-coated glass plates having 25 mm in diameter. The following genes coding NMDA receptor subunits were used for transfection: NR1-1a (GenBank accession no. U08261) and NR2B (GenBank accession no. M91562).
HEK293 Cultured cells were used for electrophysiological investigations with a latency of 16-40 h after transfection. Whole-cell currents were measured by patch-clamp amplifier (Axopatch 1D; Axon Instruments, Inc. Foster City, USA) after capacitance and serial resistance (<10 MΩ) compensation to 80-90%. Agonist-induced responses were filtered to 1 kHz (8-pole Bessel filter; Frequency Devices, Haverhill, USA), digitized with sampling frequency of 5 kHz and analyzed by pClamp version 9 software (Axon Instruments, USA). Micropipettes made of borosilicate glass were filled with intracellular solution, containing 125 mmol·l^−1 D-glukonic acid, 15 mmol·l^−1 cesium chloride, 5 mmol·l^−1 EGTA, 10 mmol·l^−1 HEPES buffer, 3 mmol·l^−1 magnesium chloride, 0.5 mmol·l^−1 calcium chloride and 2 mmol·l^−1 magnesium-salt of ATP (pH adjusted to 7.2 by cesium hydroxide solution). Extracellular solution (ECS) contained 160 mmol·l^−1 sodium chloride, 2.5 mmol·l^−1 potassium chloride, 10 mmol·l^−1 HEPES, 10 mmol·l^−1 glucose, 0.2 mmol·l^−1 EDTA a 0.7 mmol·l^−1 calcium chloride (pH adjusted to 7.3 by sodium hydroxide solution). Glycine was added to both testing and control solution.

[4] = test system: mice strain B6; experiment: Spontaneous locomotor activity in the open-field test; type: in vivo; conditions: 10 mg/kg subcutaneously in cyclodextrin, 60 min session
Method: Animals were tracked with iTrack (Biosignal group, USA) and total path during this session was evaluated. The pregnanolone argininate was applied subcutaneously (dissolved in cyclodextrin) prior to behavioral observations at doses 10 mg/kg; control animals were injected with saline and cyclodextrin.

[5] = test system: male mice strain B6; experiment: Anesthetic effect after i.p. injection; type: in vivo; conditions: 100 mg/kg i.p. in β-cyclodextrine
Method: Anesthetic effect of 3α5β pregnanolon argininate was tested on 2-month-old male mice strain B6. Animals were randomly assigned to 3 groups per 7 animals each. The first group was injected i.p. with saline, the second group received i.p. cyclodextrine, the third group obtained received the pregnanolon argininate at a dose 100 mg/kg (dissolved in β-cyclodextrine).

[6] = test system: Long-Evans male rats; experiment: Carousel maze (active allothetic place avoidance, AAPA): locomotion and cognitive function; type: in vivo
Method: Effect of pregnanolone argininate and nitrate and action of dizocilpine (a non-competitive antagonist of NMDA receptors; standardly used as positive control and referred hereafter as dizocilpine) on the behavior of rats in Carousel maze (active allothetic place avoidance (AAPA)), a spatial task requiring spatial orientation and cognitive functions
The effect of compounds on cognitive behaviors and locomotion was assessed using Carousel maze (active allothetic place avoidance (AAPA) task), which requires intact hippocampi and ability of animals to navigate in space using distinct reference frames (spatial navigation and “cognitive coordination”) (Wesierska et al., 2005) and it also allows measuring changes in the accompanying locomotor activity. AAPA task training involves animals trained to move over a slowly rotating uniform circular arena, on which a prohibited sector is defined, entering which is punished by a mild footshock. A shock sector and its position can be determined solely by its relationship to distal orienting cues in the room (Stuchlik et al., 2008).
This task is highly dependent upon hippocampal formation, with unilateral reversible ablation of this structure with TTX leading to avoidance deficit (Cimadevilla et al., 2001). Animals solving this task should walk in a direction opposite to arena rotation; otherwise it would be repeatedly brought to a fixed sector by arena rotation. We conducted 4 acquisition session of AAPA task, during which the sector location was always reinforced and remained stable throughout the training. Each session lasted 20 min.
The effect was tested on 2-month-old Long-Evans male rats. Control animals obtained cyklodextrine (s.c.), experimental groups received subcutaneous (s.c.) injections of the compound from example 2 at doses 1 mg/kg (dissolved in cyclodextrin). Intraperitonal application of dizocilpine (a non-competitive NMDA receptor antagonist; showing significant neuroprotective activity but exerting cognition-disturbing and psychotomimetic effects) was used as a positive control. Dizocilpine was applied at doses 0.15 mg/kg. It is worth noting that dizocilpine (albeit its experimental neuroprotective activity) is often used to model schizophrenia-like behaviors in […] and it has been repeatedly shown to exert a dose-dependent learning deficit and hyperlocomotion.
Locomotor activity of animals was assessed in the AAPA as total distance traveled in the coordinate frame of the arena (without passive rotation) in each 20-min session.
Another parameter, which can be measured and which brings a spatial aspect to behavioral analysis, is number of entrances into prohibited sector (occasionally termed “number of errors”).

[7] = dizocilpine 0.15 mg/kg intraperitoneal, positive control

In the case of “5β-pregnanolon-3α-yl-sulfate [Pregnanolone sulfate]”, the “Relative inhibition effect (%)” value ([1]; listed as 5β-pregnanolon-3α-yl-sulfate) is given as 67%, the “Relative inhibition effect (%)” value ([1]; listed as pregnanolone sulfate) is given as 67.2±8.2% and the mean inhibition effect [2] is given as 71.3±5.0%. It also gave an IC50 [3] of 55 µM.

With `CC(=O)O.CC(=O)O.CC(=O)[C@H]1CC[C@H]2[C@@H]3CC[C@@H]4C[C@H](OC(=O)[C@@H](N)CCCNC(=N)N)CC[C@]4(C)[C@H]3CC[C@]12C` [Example 2, 20-Oxo-5β-pregnan-3α-yl L-argininate diacetate salt] the “spontaneous locomotor activity (total path)” value [4] was “did not significantly alter”, the “time after injection to anesthesia” value [5] was 5 to 20 min and the “time after injection to decreased locomotor activity” value [5] was 3 to 15 min. The “time to spontaneous awakening” value [5] was 1 to 3 h, the “dependence of average inhibition on the maintained membrane potential” value ([3]; 10 μmol·l^−1, FIG. 1B) was “independence” and the “reversibility of inhibition of the current response” value ([3]; 10 μmol·l^−1 applied simultaneously with 1 mmol·l^−1 glutamic acid, −60 mV or +60 mV, FIG. 1A) was “reversible inhibition”. For the same compound, the IC50 [3] was 5.3 µM, the “Relative inhibition effect (%)” value ([3]; steroid 10 μmol·l^−1) was 69.2 ± 9.6% and the “locomotor activity: total distance per session in AAPA” value ([6]; compound from example 2 1 mg/kg s.c. in cyclodextrin (nitrate dose not given), 20-min session, vs cyclodextrin controls, diacetate salt, 1 mg/kg) was “no significant effect”. For the same compound, the “locomotor activity: total distance per session in AAPA” value ([6]; compound from example 2 1 mg/kg s.c. in cyclodextrin (nitrate dose not given), 20-min session, vs cyclodextrin controls, listed as pregnanolone argininate, diacetate salt, 1 mg/kg) was “failed to exhibit either decrease or increase”, the “number of entrances into shock sector (spatial cognition)” value (shortened to “number of entrances into shock sector”) ([6]; compound from example 2 1 mg/kg s.c. in cyclodextrin (nitrate dose not given), vs cyclodextrin controls, diacetate salt, 1 mg/kg) was “no significant effect” and the “number of entrances into shock sector” value ([6]; compound from example 2 1 mg/kg s.c. in cyclodextrin (nitrate dose not given), vs cyclodextrin controls, listed as pregnanolone argininate, diacetate salt, 1 mg/kg) was “do not caused worsening”.

For `CC(=O)[C@H]1CC[C@H]2[C@@H]3CC[C@@H]4C[C@H](OC(=O)CN(C)C(=N)N)CC[C@]4(C)[C@H]3CC[C@]12C.Cl` [Example 5, 20-Oxo-5β-pregnan-3α-yl 2-(methylguanidino) acetate hydrochloride], the IC50 [3] was 3.3 ± 0.7 µM and the “Relative inhibition effect (%)” value ([3]; steroid 10 μmol·l^−1) was 79.2 ± 4.2%.

In the case of `CC(=O)[C@H]1CC[C@H]2[C@@H]3CC[C@@H]4C[C@H](OC(=O)CCC[N+](C)(C)C)CC[C@]4(C)[C@H]3CC[C@]12C.[Cl-]` [Example 6, 20-Oxo-5β-pregnan-3α-yl 4-(trimethylammonium) butanoate chloride], the IC50 [3] is reported as 5.9 µM and the “Relative inhibition effect (%)” value ([3]; steroid 10 μmol·l^−1) is reported as 65.4 ± 3.4%.

For `CCC(CCC(=O)O[C@@H]1CC[C@@]2(C)[C@H](CC[C@@H]3[C@@H]2CC[C@]2(C)[C@@H](C(C)=O)CC[C@@H]32)C1)[N+](C)(C)C.[Cl-]` (stereo partly drawn) [Example 7, 20-Oxo-5β-pregnan-3α-yl 4-(trimethylammonium) hexanoate chloride], the IC50 [3] was 23.6 µM and the “Relative inhibition effect (%)” value ([3]; steroid 100 μmol·l^−1, −60 mV) was 85.6 +/− 2.3%.

With `CC(=O)[C@H]1CC[C@H]2[C@@H]3CC[C@@H]4C[C@H](OC(=O)C[N+](C)(C)C)CC[C@]4(C)[C@H]3CC[C@]12C.[Cl-]` [Example 8, 20-Oxo-5β-pregnan-3α-yl-2-(trimethylammonium) acetate hydrochloride] the IC50 [3] was 22.4 µM and the “Relative inhibition effect (%)” value ([3]; steroid 30 μmol·l^−1, −60 mV) was 57.0 ± 9.6%.

For `CC(=O)C1CCC2C3CC[C@@H]4C[C@H]([N+](C)(C)C)CC[C@]4(C)C3CC[C@]12C.[Cl-]` (stereo partly drawn) [Example 10, 3-(Trimethylammonium)-5β-pregnan-20-one chloride], the IC50 [3] was 107 µM, the “Relative inhibition effect (%)” value ([3]; steroid 100 μmol·l^−1, −60 mV) was 69.2 ± 9.6% and the melting point was 237 to 240 °C (dec.).

For `C[C@]12N[C@H](Cc3ccccc31)c1ccccc12` [dizocilpine, reference compound], the “locomotor activity: total distance per session in AAPA” value [6, 7] was “stimulated the locomotor activity”, the “number of entrances into shock sector” value [6, 7] was “dose-dependently disrupted” and the “number of entrances into shock sector” value ([6]; dizocilpine 0.15 mg/kg intraperitoneal, positive control, listed as MK-801) was “disrupts”.
